In PubChem BioAssay AID2060624 (Molecular Pharmacology Branch, DTP, NCI, 2025):

Tested on: 217524-143-R1-J4-PDC spheroids with HUVEC/MSC, viability
Test: Anticancer human tumor 217524-143-R1-J4-PDC patient-derived pancreatic carcinoma cell line growth inhibition [CLK]
Details: for IC50: curve of first compound; for viability, T/C: stronger effect = lower value
Outline: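 Multi-cell-type spheroids combined patient-derived tumor cells with HUVEC endothelial cells and human mesenchymal stem cells. Paired agents were dosed in half-log steps down from about clinical Cmax, or from 10 microM where Cmax was unknown.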

[1] = second compound 0.0316 µM, first compound 0.0316 µM
[2] = second compound 0.0316 µM, first compound 0.1 µM
[3] = second compound 0.0316 µM, first compound 0.316 µM
[4] = second compound 0.0316 µM, first compound 1 µM
[5] = second compound 0.1 µM, first compound 0.0316 µM
[6] = second compound 0.1 µM, first compound 0.1 µM
[7] = second compound 0.1 µM, first compound 0.316 µM
[8] = second compound 0.1 µM, first compound 1 µM
[9] = second compound 0.316 µM, first compound 0.0316 µM
[10] = second compound 0.316 µM, first compound 0.1 µM
[11] = second compound 0.316 µM, first compound 0.316 µM
[12] = second compound 0.316 µM, first compound 1 µM
[13] = second compound 1 µM, first compound 0.0316 µM
[14] = second compound 1 µM, first compound 0.1 µM
[15] = second compound 1 µM, first compound 0.316 µM
[16] = second compound 1 µM, first compound 1 µM
[17] = second compound 3.16 µM, first compound 0.0316 µM
[18] = second compound 3.16 µM, first compound 0.1 µM
[19] = second compound 3.16 µM, first compound 0.316 µM
[20] = second compound 3.16 µM, first compound 1 µM
[21] = second compound 10 µM, first compound 0.0316 µM
[22] = second compound 10 µM, first compound 0.1 µM
[23] = second compound 10 µM, first compound 0.316 µM
[24] = second compound 10 µM, first compound 1 µM
[25] = second compound 0.0316 µM, first compound 3.16 µM
[26] = second compound 0.0316 µM, first compound 10 µM
[27] = second compound 0.1 µM, first compound 3.16 µM
[28] = second compound 0.1 µM, first compound 10 µM
[29] = second compound 0.316 µM, first compound 3.16 µM
[30] = second compound 0.316 µM, first compound 10 µM
[31] = second compound 1 µM, first compound 3.16 µM
[32] = second compound 1 µM, first compound 10 µM
[33] = second compound 3.16 µM, first compound 3.16 µM
[34] = second compound 3.16 µM, first compound 10 µM
[35] = second compound 10 µM, first compound 3.16 µM
[36] = second compound 10 µM, first compound 10 µM
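Also: spheroids exposed to agents for seven days before reading.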
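For viability, T/C in this document: 100% = DMSO vehicle control viability.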

For `CCc1c2c(nc3ccc(O)cc13)-c1cc3c(c(=O)n1C2)COC(=O)[C@]3(O)CC` + CNC(=O)c1ccc(Nc2nc(OC3CCCC3)c3c(-c4ccc5nc(C)oc5c4)c[nH]c3n2)c(OC)c1, the IC50 (second compound 0.0316 µM) was 3.76 nM, the IC50 (second compound 0.1 µM) was less than 3.16 nM and the IC50 (second compound 0.316 µM) was less than 3.16 nM. The IC50 (second compound 1 µM) was less than 3.16 nM, the IC50 (second compound 3.16 µM) was less than 3.16 nM and the IC50 (second compound 10 µM) was less than 3.16 nM. The viability, T/C (second compound 0.0316 µM, first compound 0.00316 µM) was 53.2%, the viability, T/C (second compound 0.0316 µM, first compound 0.01 µM) was 39.4% and the viability, T/C [1] was 32.2%. It also gave a viability, T/C [2] of 24.1%, a viability, T/C [3] of 15.6% and a viability, T/C [4] of 3.04%. For the same compound, the viability, T/C (second compound 0.1 µM, first compound 0.00316 µM) was 48.7%, the viability, T/C (second compound 0.1 µM, first compound 0.01 µM) was 35.8% and the viability, T/C [5] was 27.9%. For the same compound, the viability, T/C [6] was 24.6%, the viability, T/C [7] was 17.4% and the viability, T/C [8] was 3.12%. For the same compound, the viability, T/C (second compound 0.316 µM, first compound 0.00316 µM) was 39.6%, the viability, T/C (second compound 0.316 µM, first compound 0.01 µM) was 30.1% and the viability, T/C [9] was 25.1%. It also gave a viability, T/C [10] of 21.4%, a viability, T/C [11] of 12.9% and a viability, T/C [12] of 3.58%. For the same compound, the viability, T/C (second compound 1 µM, first compound 0.00316 µM) was 24.6%, the viability, T/C (second compound 1 µM, first compound 0.01 µM) was 20.5% and the viability, T/C [13] was 17.6%. It also gave a viability, T/C [14] of 15.6%, a viability, T/C [15] of 9.88% and a viability, T/C [16] of 3.65%. It also gave a viability, T/C (second compound 3.16 µM, first compound 0.00316 µM) of 23.6%, a viability, T/C (second compound 3.16 µM, first compound 0.01 µM) of 20.8% and a viability, T/C [17] of 15.6%. For the same compound, the viability, T/C [18] was 13%, the viability, T/C [19] was 9.01% and the viability, T/C [20] was 2.91%. It also gave a viability, T/C (second compound 10 µM, first compound 0.00316 µM) of 23.2%, a viability, T/C (second compound 10 µM, first compound 0.01 µM) of 18.8% and a viability, T/C [21] of 17%. It also gave a viability, T/C [22] of 13.4%, a viability, T/C [23] of 10% and a viability, T/C [24] of 3.01%.

In the case of `O=C(c1cc(Cc2n[nH]c(=O)c3ccccc23)ccc1F)N1CCN(C(=O)C2CC2)CC1` + CN1CCN(c2cc(C(=O)Nc3cc4cc(-c5cnn(C)c5)ccc4cn3)ccn2)CC1, the IC50 (second compound 0.0316 µM) is reported as greater than 10000 nM, the IC50 (second compound 0.1 µM) is reported as 537 nM and the IC50 (second compound 0.316 µM) is reported as less than 31.6 nM. For the same compound, the IC50 (second compound 1 µM) was less than 31.6 nM, the IC50 (second compound 3.16 µM) was less than 31.6 nM and the IC50 (second compound 10 µM) was less than 31.6 nM. For the same compound, the viability, T/C [1] was 76.5%, the viability, T/C [2] was 91.6% and the viability, T/C [3] was 71.2%. For the same compound, the viability, T/C [4] was 90.3%, the viability, T/C [25] was 68.5% and the viability, T/C [26] was 64.3%. It also gave a viability, T/C [5] of 51.5%, a viability, T/C [6] of 46.6% and a viability, T/C [7] of 49.7%. It also gave a viability, T/C [8] of 58.5%, a viability, T/C [27] of 49.8% and a viability, T/C [28] of 43.5%. The viability, T/C [9] was 24.3%, the viability, T/C [10] was 22.4% and the viability, T/C [11] was 20%. The viability, T/C [12] was 18%, the viability, T/C [29] was 21.4% and the viability, T/C [30] was 17.5%. For the same compound, the viability, T/C [13] was 2.03%, the viability, T/C [14] was 1.38% and the viability, T/C [15] was 1.73%. The viability, T/C [16] was 1.56%, the viability, T/C [31] was 1.8% and the viability, T/C [32] was 2%. The viability, T/C [17] was 0.89%, the viability, T/C [18] was 1.08% and the viability, T/C [19] was 0.76%. For the same compound, the viability, T/C [20] was 1.05%, the viability, T/C [33] was 0.74% and the viability, T/C [34] was 0.87%. The viability, T/C [21] was 0.16%, the viability, T/C [22] was 0.22% and the viability, T/C [23] was 0.23%. For the same compound, the viability, T/C [24] was 0.22%, the viability, T/C [35] was 0.3% and the viability, T/C [36] was 0.31%.

`CC(C)CC(NC(=O)C(Cc1ccccc1)NC(=O)c1cnccn1)B(O)O` (stereo not drawn) + CNC(=O)c1ccc(Nc2nc(OC3CCCC3)c3c(-c4ccc5nc(C)oc5c4)c[nH]c3n2)c(OC)c1 was tested, and the IC50 (second compound 0.0316 µM) was 5.06 nM, the IC50 (second compound 0.1 µM) was 3.04 nM and the IC50 (second compound 0.316 µM) was less than 0.949 nM. For the same compound, the IC50 (second compound 1 µM) was less than 0.949 nM, the IC50 (second compound 3.16 µM) was less than 0.949 nM and the IC50 (second compound 10 µM) was less than 0.949 nM. The viability, T/C (second compound 0.0316 µM, first compound 0.000949 µM) was 90.4%, the viability, T/C (second compound 0.0316 µM, first compound 0.003 µM) was 71.8% and the viability, T/C (second compound 0.0316 µM, first compound 0.00949 µM) was 23.7%. The viability, T/C (second compound 0.0316 µM, first compound 0.03 µM) was 6.76%, the viability, T/C (second compound 0.0316 µM, first compound 0.0949 µM) was 3.97% and the viability, T/C (second compound 0.0316 µM, first compound 0.3 µM) was 1.1%. It also gave a viability, T/C (second compound 0.1 µM, first compound 0.000949 µM) of 45.6%, a viability, T/C (second compound 0.1 µM, first compound 0.003 µM) of 55.1% and a viability, T/C (second compound 0.1 µM, first compound 0.00949 µM) of 17.5%. The viability, T/C (second compound 0.1 µM, first compound 0.03 µM) was 5.06%, the viability, T/C (second compound 0.1 µM, first compound 0.0949 µM) was 2.97% and the viability, T/C (second compound 0.1 µM, first compound 0.3 µM) was 1.89%. The viability, T/C (second compound 0.316 µM, first compound 0.000949 µM) was 40.3%, the viability, T/C (second compound 0.316 µM, first compound 0.003 µM) was 47.1% and the viability, T/C (second compound 0.316 µM, first compound 0.00949 µM) was 18.7%. For the same compound, the viability, T/C (second compound 0.316 µM, first compound 0.03 µM) was 4.6%, the viability, T/C (second compound 0.316 µM, first compound 0.0949 µM) was 3.43% and the viability, T/C (second compound 0.316 µM, first compound 0.3 µM) was 2.04%. The viability, T/C (second compound 1 µM, first compound 0.000949 µM) was 29.1%, the viability, T/C (second compound 1 µM, first compound 0.003 µM) was 38.5% and the viability, T/C (second compound 1 µM, first compound 0.00949 µM) was 7.88%. For the same compound, the viability, T/C (second compound 1 µM, first compound 0.03 µM) was 2.84%, the viability, T/C (second compound 1 µM, first compound 0.0949 µM) was 2.06% and the viability, T/C (second compound 1 µM, first compound 0.3 µM) was 1.44%. It also gave a viability, T/C (second compound 3.16 µM, first compound 0.000949 µM) of 25.7%, a viability, T/C (second compound 3.16 µM, first compound 0.003 µM) of 41.2% and a viability, T/C (second compound 3.16 µM, first compound 0.00949 µM) of 5.46%. The viability, T/C (second compound 3.16 µM, first compound 0.03 µM) was 2.33%, the viability, T/C (second compound 3.16 µM, first compound 0.0949 µM) was 1.76% and the viability, T/C (second compound 3.16 µM, first compound 0.3 µM) was 1.27%. For the same compound, the viability, T/C (second compound 10 µM, first compound 0.000949 µM) was 24.6%, the viability, T/C (second compound 10 µM, first compound 0.003 µM) was 34.8% and the viability, T/C (second compound 10 µM, first compound 0.00949 µM) was 6.06%. It also gave a viability, T/C (second compound 10 µM, first compound 0.03 µM) of 2.66%, a viability, T/C (second compound 10 µM, first compound 0.0949 µM) of 1.59% and a viability, T/C (second compound 10 µM, first compound 0.3 µM) of 0.75%.

With `Nc1ccccc1NC(=O)c1ccc(CNC(=O)OCc2cccnc2)cc1` + CNC(=O)c1ccc(Nc2nc(OC3CCCC3)c3c(-c4ccc5nc(C)oc5c4)c[nH]c3n2)c(OC)c1 the IC50 (second compound 0.0316 µM) was 4960 nM, the IC50 (second compound 0.1 µM) was 3850 nM and the IC50 (second compound 0.316 µM) was less than 31.6 nM. It also gave an IC50 (second compound 1 µM) of less than 31.6 nM, an IC50 (second compound 3.16 µM) of less than 31.6 nM and an IC50 (second compound 10 µM) of less than 31.6 nM. It also gave a viability, T/C [1] of 109%, a viability, T/C [2] of 99% and a viability, T/C [3] of 97.3%. The viability, T/C [4] was 87.7%, the viability, T/C [25] was 59.2% and the viability, T/C [26] was 34%. For the same compound, the viability, T/C [5] was 50.3%, the viability, T/C [6] was 50.2% and the viability, T/C [7] was 57.3%. The viability, T/C [8] was 62.1%, the viability, T/C [27] was 53% and the viability, T/C [28] was 32%. For the same compound, the viability, T/C [9] was 37.9%, the viability, T/C [10] was 43% and the viability, T/C [11] was 47.8%. For the same compound, the viability, T/C [12] was 60.5%, the viability, T/C [29] was 53.2% and the viability, T/C [30] was 29.9%. For the same compound, the viability, T/C [13] was 35.8%, the viability, T/C [14] was 35.9% and the viability, T/C [15] was 49.5%. For the same compound, the viability, T/C [16] was 46.2%, the viability, T/C [31] was 38.4% and the viability, T/C [32] was 22.3%. For the same compound, the viability, T/C [17] was 33.1%, the viability, T/C [18] was 30.3% and the viability, T/C [19] was 34.6%. It also gave a viability, T/C [20] of 45%, a viability, T/C [33] of 40.3% and a viability, T/C [34] of 19.3%. It also gave a viability, T/C [21] of 30.4%, a viability, T/C [22] of 25.9% and a viability, T/C [23] of 39.4%. It also gave a viability, T/C [24] of 38.6%, a viability, T/C [35] of 37.4% and a viability, T/C [36] of 13.3%.
